Among the test systems are OVCAR-8 ovarian; UACC-62 melanoma; SK-MEL-2 melanoma; SK-MEL-5 melanoma; RXF 393 renal; NCI-H23 lung; COLO 205 colon; TK-10 renal; CAKI-1 renal; 786-0 renal.
Holding throughout (test): DTP human tumour cell line panel, 48 h

Where “and” joins values, the source holds several entries; their conditions need not be identical. Identical values can stand only once.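 Interpolation was linear, between the two tested concentrations surrounding the appropriate level; five concentrations were tested over 48 hours in 96-well plates. GI50: concentration for 50% inhibition of growth. TGI: total growth inhibition.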 Bounds are passed on as bounds.

With `CC(=O)Nc1ccc(C(=O)NN2C(=O)C(Cl)C2c2ccc([N+](=O)[O-])cc2)cc1` (stereo not drawn), the TGI in the test with OVCAR-8 ovarian, in the test on UACC-62 melanoma, in the test with SK-MEL-2 melanoma, with SK-MEL-5 melanoma, with RXF 393 renal and in the test on NCI-H23 lung was over 100 µM each time. Besides, the TGI in the test with COLO 205 colon, in the test on TK-10 renal, in the test with CAKI-1 renal and with 786-0 renal was over 100 µM throughout.
With `COC1=CC(=O)C2C(C1=O)[C@@H]1c3ccccc3C[C@H]21` (stereo partly drawn), the TGI with OVCAR-8 ovarian, with UACC-62 melanoma, in the test with SK-MEL-2 melanoma, in the test on SK-MEL-5 melanoma, in the test on RXF 393 renal and with NCI-H23 lung was over 100 µM each time. In addition, the TGI in the test on COLO 205 colon, in the test with TK-10 renal, in the test with CAKI-1 renal and with 786-0 renal was over 100 µM each time.
As for `Cc1ccc(/C(=N\N=C(N)N)c2ccccc2)cc1`, the GI50 in the test with OVCAR-8 ovarian is 0.521 µM; in the test with UACC-62 melanoma it was 0.438 µM; in the test on SK-MEL-2 melanoma, 5.02 µM; with SK-MEL-5 melanoma, 0.353 µM; in the test with RXF 393 renal, 0.296 µM; with NCI-H23 lung, 0.597 µM. The GI50 with COLO 205 colon is 0.282 µM; with TK-10 renal it was 0.549 µM; in the test with CAKI-1 renal, 0.843 µM; in the test on 786-0 renal, 0.594 µM. In addition, the TGI in the test on OVCAR-8 ovarian came out at 14.3 µM; with UACC-62 melanoma, 15.8 µM; in the test with SK-MEL-2 melanoma, 28.7 µM; in the test on SK-MEL-5 melanoma it was 1.73 µM; in the test on RXF 393 renal it was 2.9 µM; with NCI-H23 lung, 9.98 µM. Also, the TGI with COLO 205 colon stood at 0.714 µM; with TK-10 renal, 15.1 µM; in the test with CAKI-1 renal, 20.1 µM; in the test with 786-0 renal it was 12.1 µM.
Take `COC(=O)C1C(O)CC(c2ccccn2)N(Cc2ccccc2)C1c1ccccn1` (stereo not drawn): the TGI in the test with OVCAR-8 ovarian, with UACC-62 melanoma, with SK-MEL-2 melanoma, with SK-MEL-5 melanoma, with RXF 393 renal and with NCI-H23 lung was over 100 µM each time. The TGI with COLO 205 colon, with TK-10 renal, with CAKI-1 renal and with 786-0 renal was over 100 µM throughout.
As for `CCOC(=O)/C(O)=C/c1cc(OC)cc(=O)o1`, the TGI in the test with OVCAR-8 ovarian, in the test on UACC-62 melanoma, in the test with SK-MEL-2 melanoma, in the test on SK-MEL-5 melanoma, in the test with RXF 393 renal and in the test with NCI-H23 lung was over 100 µM in each case. In addition, the TGI in the test on COLO 205 colon, in the test with TK-10 renal, in the test with CAKI-1 renal and with 786-0 renal was over 100 µM throughout.
On to `CCCCCCCNc1nc(C(=O)OCC)ncc1-c1ccc(C(F)(F)F)cc1`, for which the GI50 was 40.2 µM in the test on OVCAR-8 ovarian; 25.2 µM with UACC-62 melanoma; 26.6 µM in the test with SK-MEL-2 melanoma; 20.6 µM in the test on SK-MEL-5 melanoma; 19 µM in the test with RXF 393 renal; 42.2 µM with NCI-H23 lung. Moreover, the GI50 with COLO 205 colon is 26.8 µM; in the test on TK-10 renal, 51.2 µM; in the test with CAKI-1 renal it was 38.2 µM; with 786-0 renal it was 39.3 µM. Moreover, the TGI is over 100 µM with OVCAR-8 ovarian; over 100 µM in the test on UACC-62 melanoma; 66.7 µM with SK-MEL-2 melanoma; 51.9 µM with SK-MEL-5 melanoma; 71.1 µM in the test with RXF 393 renal; over 100 µM with NCI-H23 lung. Also, the TGI in the test with COLO 205 colon was 88.1 µM; with TK-10 renal, over 100 µM; with CAKI-1 renal it was over 100 µM; in the test on 786-0 renal, over 100 µM.
As for `COc1ccccc1/C=C1\CCC(CCN(C)C)(C2=CCCC2)C1=O` (stereo not drawn), the TGI in the test on OVCAR-8 ovarian is 34.7 µM; with UACC-62 melanoma, 23.5 µM; in the test with SK-MEL-2 melanoma, 35.6 µM; in the test with SK-MEL-5 melanoma, 26.7 µM; with RXF 393 renal it was 27.3 µM; with NCI-H23 lung, over 100 µM. Also, the TGI with COLO 205 colon was 22.1 µM; with TK-10 renal it was 37.5 µM; with CAKI-1 renal, 57.2 µM; in the test on 786-0 renal, 28.5 µM.
Consider `CC(C)C1(O)C(c2ccccc2)=C(c2ccccc2)C(c2ccccc2)=C1c1ccccc1`, for which the TGI was over 100 µM with OVCAR-8 ovarian; 20.9 µM in the test on UACC-62 melanoma; 18.9 µM in the test on SK-MEL-2 melanoma; 22.4 µM in the test on SK-MEL-5 melanoma; 13.3 µM in the test with RXF 393 renal; 91.3 µM with NCI-H23 lung. Moreover, the TGI was 21.7 µM in the test with COLO 205 colon, 56.3 µM in the test on TK-10 renal, over 100 µM in the test with CAKI-1 renal and 74.4 µM in the test on 786-0 renal.
Consider `CSC(CC(=O)O)C(=O)O` (stereo not drawn), for which the TGI in the test on OVCAR-8 ovarian, in the test on UACC-62 melanoma, with SK-MEL-2 melanoma, with SK-MEL-5 melanoma, with RXF 393 renal and in the test on NCI-H23 lung was over 100 µM in each case. The TGI in the test with COLO 205 colon, in the test on TK-10 renal, in the test with CAKI-1 renal and in the test with 786-0 renal was over 100 µM each time.
In the case of `O=C1C(c2c[nH]c3ccccc23)=C(c2c[nH]c3ccccc23)C(=O)N1O`, the GI50 in the test with OVCAR-8 ovarian is over 25 µM; in the test with UACC-62 melanoma, 24.6 µM; in the test on SK-MEL-2 melanoma, over 25 µM; with SK-MEL-5 melanoma, over 25 µM; with RXF 393 renal it was over 22.7 µM; in the test on NCI-H23 lung it was over 25 µM. In addition, the GI50 in the test with COLO 205 colon was over 25 µM; in the test on TK-10 renal it was over 25 µM; with CAKI-1 renal, over 20.8 µM; with 786-0 renal, over 25 µM. The TGI in the test with OVCAR-8 ovarian, with UACC-62 melanoma, in the test on SK-MEL-2 melanoma, in the test on SK-MEL-5 melanoma, in the test on RXF 393 renal and in the test with NCI-H23 lung was over 25 µM in each case. Also, the TGI in the test on COLO 205 colon, in the test on TK-10 renal, with CAKI-1 renal and in the test with 786-0 renal was over 25 µM in each case.
As for `CCc1cccc(C(C)C)c1NC(=O)C(=O)CC(=O)c1c(C)n([O-])c2ccccc2[n+]1=O`, the TGI in the test on OVCAR-8 ovarian, with UACC-62 melanoma, in the test with SK-MEL-2 melanoma, in the test with SK-MEL-5 melanoma, in the test with RXF 393 renal and in the test with NCI-H23 lung was over 100 µM each time. The TGI in the test on COLO 205 colon, in the test on TK-10 renal, in the test with CAKI-1 renal and in the test with 786-0 renal was over 100 µM in each case.
`COc1ccc(-c2oc3c(OC)c(OC)c(OC)c(O)c3c(=O)c2OC)cc1OC`: the TGI with OVCAR-8 ovarian is over 100 µM; with UACC-62 melanoma it was over 92 µM; with SK-MEL-2 melanoma, 66.2 µM; in the test on SK-MEL-5 melanoma, 41.7 µM; in the test with RXF 393 renal, 87.4 µM; with NCI-H23 lung, over 83.8 µM. The TGI with COLO 205 colon is over 73.1 µM; in the test with TK-10 renal, over 100 µM; with CAKI-1 renal, over 100 µM; in the test on 786-0 renal, over 77.9 µM.
Consider `COc1cc(/C=C2\CCC/C(=C\c3cc(OC)c(O)c(OC)c3)C2=O)cc(OC)c1O`, for which the TGI is 75 µM in the test on OVCAR-8 ovarian; 5.2 µM in the test on UACC-62 melanoma; 11.8 µM and 4.19 µM in the test with SK-MEL-2 melanoma; 75 µM and 19.6 µM in the test with SK-MEL-5 melanoma; 3.22 µM in the test on RXF 393 renal; 3.5 µM and 4.19 µM in the test with NCI-H23 lung. Moreover, the TGI with COLO 205 colon is 73.8 µM and 32.8 µM; in the test on TK-10 renal, over 100 µM; in the test on CAKI-1 renal it was 4.38 µM and 7.62 µM. Besides, the GI50 in the test on SK-MEL-2 melanoma is 1.63 µM; in the test with SK-MEL-5 melanoma it was 2.83 µM; with CAKI-1 renal, 2.51 µM; with 786-0 renal it was 3.9 µM.
With `O=[N+]([O-])c1ccc(S(=O)Cc2ccccc2)c([N+](=O)[O-])c1` (stereo not drawn), the GI50 is 3.02 µM with OVCAR-8 ovarian; 2.55 µM in the test with UACC-62 melanoma; 8.54 µM in the test with SK-MEL-2 melanoma; 9.08 µM in the test with SK-MEL-5 melanoma; 1.45 µM with RXF 393 renal; 2.54 µM in the test with NCI-H23 lung. The GI50 was 1.68 µM in the test on COLO 205 colon, 1.78 µM in the test with TK-10 renal, 1.85 µM in the test with CAKI-1 renal and 4.91 µM in the test with 786-0 renal. For the same molecule, the TGI in the test with OVCAR-8 ovarian is 10.5 µM; with UACC-62 melanoma, 8.89 µM; with SK-MEL-2 melanoma it was 22.3 µM; in the test with SK-MEL-5 melanoma, 21.1 µM; with RXF 393 renal, 2.78 µM; with NCI-H23 lung, 8.91 µM. The TGI was 3.05 µM in the test on COLO 205 colon, 3.16 µM in the test on TK-10 renal, 3.85 µM in the test with CAKI-1 renal and 17.3 µM in the test on 786-0 renal.
In the case of `C=C1SC(=Nc2c(C)cc(C)cc2C)N(C(=O)c2sc3ccccc3c2Cl)C12CCCCC2`, the GI50 was over 100 µM in the test on OVCAR-8 ovarian; 78.5 µM with UACC-62 melanoma; 61.6 µM in the test with SK-MEL-2 melanoma; over 100 µM in the test with SK-MEL-5 melanoma; over 100 µM with RXF 393 renal; 37.4 µM in the test with NCI-H23 lung. Moreover, the GI50 with COLO 205 colon was over 100 µM; with TK-10 renal, over 100 µM; in the test with CAKI-1 renal, 10.7 µM; in the test with 786-0 renal, over 100 µM. For the same molecule, the TGI with OVCAR-8 ovarian, in the test with UACC-62 melanoma, in the test with SK-MEL-2 melanoma, in the test on SK-MEL-5 melanoma, with RXF 393 renal and with NCI-H23 lung was over 100 µM each time. Besides, the TGI in the test on COLO 205 colon, in the test with TK-10 renal, in the test on CAKI-1 renal and in the test with 786-0 renal was over 100 µM throughout.

For the origin of these results see PubChem BioAssay (NCI).
